{"source": "patent US10022308B2", "about": "“Wipe and methods for improving skin health” (Kimberly-Clark Worldwide, Inc., priority 2003, dated 2018)", "key": {"[1]": {"tested_on": "P. mirabilis (ATCC #29906)", "experiment": "Adhesion assay for P. mirabilis on synthetic skin substrate", "format": "cell-based, Proteus mirabilis", "conditions": "50 μl of 10% botanical stock in TSB + 50 μl bacteria, 3 h room temperature, VITRO-SKIN, AlamarBlue; >100% more cells adhered than control", "procedure": "(§1) The protocols for testing the ability of botanical compounds to elicit any of these desired effects are set forth in the Examples. In general, the ability of a botanical compound to affect the adherence of an organism to skin is determined by comparing the adherence of the organism to skin in the presence of the botanical compound, to the adherence of the organism to skin in the absence of the botanical compound. If the amount of adherence in the presence of the botanical compound is 150% or greater than the amount of adherence in the absence of the botanical compound, then the botanical compound is an adherence promoter for that organism. If the amount of adherence in the presence of the botanical compound is 50% or less than the amount of adherence in the absence of the botanical compound, then the botanical compound is an anti-adherent for that organism.\n(§2) Each of the botanical compounds listed in Table 1 was screened to measure the effect of the compound on the adhesion of P. mirabilis, S. epidermidis, or P. aeruginosa to the skin. […]\n(§3) The next day, the optical density (650 nm) of the TSB culture was read. […] AlamarBlue® levels were read (emission levels read at 590 nm) in an Ascent plate reader (excitation level of 544 nm) at 1 and 2 hours. When not being read, the plate was incubated at 37° C. with a lid. […]"}, "[2]": {"tested_on": "S. epidermidis (ATCC #12228)", "experiment": "Adhesion assay for S. epidermidis on synthetic skin substrate", "format": "cell-based, Staphylococcus epidermidis", "conditions": "50 μl of 10% botanical stock in TSB + 50 μl bacteria, 3 h room temperature, VITRO-SKIN, AlamarBlue", "procedure": "as §1, §2, §3"}, "[3]": {"tested_on": "Lactobacillus acidophilus (ATCC #:314)", "experiment": "Adhesion assay for Lactobacillus acidophilus on synthetic skin substrate", "format": "cell-based", "conditions": "50 μl of 10% botanical stock in TSB + 50 μl bacteria, 3 h at 33° C. or 37° C., VITRO-SKIN, AlamarBlue", "procedure": "as §1, with “If the amount of adherence in the presence of the botanical compound is 50% or less than the amount of adherence in the absence of the botanical compound, then the botanical compound is an anti-adherent for that organism.” left out\n(§4) Results are given in Table 1, which gives the percent adherence to the skin of P. mirabilis, S. epidermidis, P. aeruginosa, L. acidophilus, and C. albicans for the various botanical compound samples, relative to the control. The percentage is based on the number of cells that adhered to the skin for the botanical samples as compared to the number of cells that adhered to the skin in the control, as determined by the AlamarBlue® levels. […]\nThe next day, the optical density (650 nm) of the Lactobacilli broth culture was read. […] AlamarBlue® levels were read (emission levels read at 590 nm) in an Ascent plate reader (excitation level of 544 nm) at 2 and 3 hours. […]"}, "[4]": {"tested_on": "C. albicans (ATCC #10231)", "experiment": "Adhesion assay for Candida albicans on synthetic skin substrate", "format": "cell-based", "conditions": "50 μl of 10% botanical stock in TSB + 50 μl yeast, 3 h at 33° C., VITRO-SKIN, AlamarBlue", "procedure": "as §1, §4\nThe next day, the optical density (650 nm) of the SDB culture was read. […]"}, "[5]": {"tested_on": "P. aeruginosa (ATCC #27853)", "experiment": "Adhesion assay for P. aeruginosa on synthetic skin substrate", "format": "cell-based, Pseudomonas aeruginosa", "conditions": "50 μl of 10% botanical stock in TSB + 50 μl bacteria, 3 h room temperature, VITRO-SKIN, AlamarBlue", "procedure": "as §1, §2, §3"}}, "data": [{"molecule": "CCCC(O)CO", "note": "(centres unmarked) [Hydrolite-5]", "values": [{"measurement": "percent adherence to the skin of P. mirabilis (PM) relative to the control", "setting": "[1]", "value": 9.2, "unit": "%"}, {"measurement": "percent adherence to the skin of S. epidermidis (SE) relative to the control", "setting": "[2]", "value": 141.5, "unit": "%"}, {"measurement": "percent adherence to the skin of L. acidophilus (LA) relative to the control", "setting": "[3]", "value": 169.66, "unit": "%"}, {"measurement": "percent adherence to the skin of C. albicans (CA) relative to the control", "setting": "[4]", "value": 3.9, "unit": "%"}, {"measurement": "percent adherence to the skin of P. aeruginosa (PA) relative to the control", "setting": "[5]", "value": 5.1, "unit": "%"}]}]}
